In one series the test system is endothelial cell HMEC-1. Type of series: cell-based. An excerpt: (§1) Sample and control: magnesium lithospermate B (prepared according to Example 6 of the present application), lithospermic acid B (lab made; lot number: 20131017), formulated with normal saline prior to use; normal saline as solvent control was derived from Jiangsu Yabang Pharmaceutical Co., Ltd.; the other reagents were all commercially available analytically pure products. Cell lines and reagents: cardiac myoblast (H9C2); Microvascular Endothelial Cell (HMEC-1); Lactic Dehydrogenase Cytotoxicity Detection Kit, Beyotime Biotechnology Institute. Dosage setting: the dosages of lithospermic acid B and magnesium lithospermate B were set at 10, 50, 100, 200, 400, 800, 1200, 1600 μM and the incubation time was set as 24 hours in the present experiment. Experimental method: H9C2 cells and HMEC-1 cells were respectively incubated in 10% FBS containing low saccharide DMEM medium and MCDB-131 medium, at 37° C. and 5% CO2. Cells were seeded in a 96-well culture plate, which was added with different concentrations of lithospermic acid B solutions and magnesium lithospermate B solutions on the next day (about 80% fusion). After incubation for 24 hours in total, the detection was conducted according to instructions of the Lactic Dehydrogenase Cytotoxicity Detection Kit. Observation indicator and observation time: the observation indicator is the level of lactic dehydrogenase in cells; cell survival rate was represented by intracellular LDH content ratio, i.e. (absorbance of treated sample well−absorbance of sample control well)/(absorbance of cells with maximum enzymatic activity−absorbance of sample control well)×100. Statistical method: the data was presented with average±standard derivation (mean±SD); the comparison of two groups of data was statistically analyzed by student-t test method, P<0.05 indicating statistical difference.

In series [1] the test system is cardiac myoblast cell H9C2. Type of series: cell-based.
From the text: as §1

Series [2] relates to bleeding of severed tails of rats. The experiment in a line: Bleeding time of severed tails of rats. The series is classed as in vivo, SD rat. To be noted: for Bleeding time: injection through femoral vein, tail severed 2 mins after administration, cut-off 1800 seconds. From the text:
Sample and control: lithospermic acid B, dipotassium lithospermate B, depside salts of Salvia miltiorrhiza (comprising 85% magnesium lithospermate B), magnesium lithospermate B, formulated with normal saline prior to use; normal saline as solvent control was from Jiangsu Yabang Pharmaceutical Co., Ltd.; the other reagents were all commercially available analytically pure products. Experimental animal: species and strain: SD rat; source: Shanghai SLAC Laboratory Animal Co., Ltd., Laboratory Animal Production License: SCXK (Shanghai) 2012-0002; number and gender: 50, male; animal weight: 120-200 g. Dosage setting: the dosages of lithospermic acid type reagents were set as 50 and 100 mg/kg in the present experiment; normal saline was given as additional solvent control. Tail severing time was 2 mins after administration. Administration route and administration dosage of sample and control: administration by injection through femoral vein, 2 ml/kg. Experimental method: the animals were water fasted overnight. 50 mg/kg pentobarbital sodium was intraperitoneally injected for anesthesia prior to the experiment. After anesthesia of the animals, markers were made at 4 mm from tips of rat tails with a marker pen and ruler. Drugs were injected through femoral veins of the animals. 2 mins later, the tails were swiftly severed at marked positions of the animal tails with a scalpel. The remained animal tails were rapidly inserted into prepared normal saline tubes in 37° C. water bath, and timing was started. The bleeding of the animal tails was observed. If no more bleeding was observed within 30 seconds, the time was recorded as coagulation time (unit: second) of the animals. […] Observation indicator and observation time: the indicator was the bleeding time. Statistical method: the experimental data was represented with x±SD; GraphPad Prism 5 1 way ANOVA was applied for significance test.

In series [3] the test system is lipid oxidation in rat liver microsome. The experiment in a line: In vitro anti-lipid peroxidation experiment (MDA, TBA method). The series is classed as biochemical, SD rat. To be noted: 100 μM, 37° C. 90 mins. From the text: Sample and control: magnesium lithospermate B (prepared according to Example 6 of the present application), lithospermic acid B (lab-made; lot number: 20131017), formulated with normal saline prior to use; normal saline as solvent control was from Jiangsu Yabang Pharmaceutical Co., Ltd.; the other reagents were all commercially available analytically pure products. Tris base, potassium chloride, dipotassium phosphate, glycerol, etc. (Sinopharm Chemical Reagent Co., Ltd.); Coomassie brilliant blue G-250, bovine serum albumin (Shanghai Lanji Technology Development Co., Ltd.).
Experimental animal: species and strain: SD rat; source: Shanghai SLAC Laboratory Animal Co., Ltd., Laboratory Animal Production License: SCXK (Shanghai) 2012-0002; number and gender: 2, male; animal weight: 200-250 g.
Steps for preparing liver microsome: liver tissue was taken out, cut into pieces, washed with Buffer A, wiped up, and weighed for 8 g. By adding 10 ml Buffer A per gram of tissue, 80 ml was added in total, followed by automatic homogenization and further homogenization with manual homogenizer. The homogenate was centrifuged at 10,000 g and 4° C. for 30 mins, and the supernatant was taken out. The supernatant was centrifuged at 105,000 g and 4° C. for 60 mins. The resulting precipitate is the microsome, which was then added with Buffer B to obtain microsome suspension, aliquoted into 2 ml small tubes, and stored in −70° C. refrigerator for further use. Determination of protein content: using Bradford method (Coomassie brilliant blue G-250 method).
Determination of lipid oxidation in rat liver microsome: 1 ml liver microsome was added into each tube, followed by addition of different concentrations of reagent solutions. The mixtures were well shaken and incubated in 37° C. water bath for 90 mins. After the tubes were taken out, 1 ml 10% trichloroacetic acid (TCA) and 1 ml 0.67% thiobarbituric acid (TBA) were added into each tube. The tubes were placed in boiling water bath for 15 mins, then cooled with running water and centrifuged at 3000 rpm for 10 mins. The supernatants were taken for colorimetric determination at 532 nm. The contents were calculated with standard tetraethoxypropane and represented with content per mg protein.
Calculation formula: MDA content (nmol/mg prot)={[(Asample−Ablank)÷(Astandard−Ablank)]×10 nmol/ml}÷protein content Inhibition rate %=(MDAblank−MDAsample)/MDAblank×100%

Series [4] is classed as physicochemical. Particulars: for 0 h peak area / 2 h peak area / 4 h peak area / 6 h peak area / 8 h peak area / 12 h peak area / 24 h peak area: HPLC 288 nm; for 0 h peak area: 1 mg/mL aqueous solution at 25° C. diluted 10 times, MLB of Example 1; for 2 h peak area / 4 h peak area / 6 h peak area / 8 h peak area / 12 h peak area / 24 h peak area: aqueous solution; for Average peak area: average over 0-24 h. The protocol: The chemical stability of magnesium lithospermate B was investigated by detecting the variation of peak areas (HPLC). Specific experimental method: lithospermic acid B (lab-made; lot number: 20131017) and magnesium lithospermate B prepared in Example 1 of the present invention were respectively formulated to 1 mg/mL aqueous solution at 25° C., which was then diluted 10 times. The variation of peak areas of lithospermic acid B at 288 nm for durations of 0, 2, 4, 6, 8, 12, and 24 hours were detected by HPLC, respectively. 10 microliters was injected for each time.

Molecules are shown by their SMILES. “Also recorded” adds a separate entry of the source. Where two headings read alike, the source gives them in different places. Marks after values point to notes of the source that are not given here.

Take `O=C(/C=C/c1ccc(O)c2c1[C@H](C(=O)O[C@H](Cc1ccc(O)c(O)c1)C(=O)O)[C@@H](c1ccc(O)c(O)c1)O2)O[C@H](Cc1ccc(O)c(O)c1)C(=O)O` [Lithospermic acid B, lithospermic acid B, reference compound]: in the series on endothelial cell HMEC-1, the “Toxic effect at high dosages, in words” value is listed as “toxic effect”. Also, the “Toxic effect at high dosages, in words” value in series [1] is “toxic effect”. In addition, the Bleeding time in series [2] (50 mg/kg) was determined as 869 ± 71 s. The compound further yielded a Bleeding time in series [2] (100 mg/kg) of 1078 ± 137 s. In series [3] (n = 3), the “Inhibition rate (anti-lipid peroxidation, MDA)” value (“Inhibition rate” for short) came to 86.42%. Further, in series [3] (n = 3, listed as lithospermic acid B), the “Inhibition rate” value is recorded as “around 85%”. In series [4], the “0 h peak area” value came to 3957, the “2 h peak area” value is given as 3991, the “4 h peak area” value turned out to be 3992 and the “6 h peak area” value is on record as 3983. For the same compound, in series [4], the “8 h peak area” value is given as 4002, the “12 h peak area” value worked out at 3990, the “24 h peak area” value is reported as 4000 and the Average peak area was found to be 3987.8.
Consider `O=C(C=Cc1ccc(O)c2c1C(C(=O)OC(Cc1ccc(O)c(O)c1)C(=O)[O-])C(c1ccc(O)c(O)c1)O2)OC(Cc1ccc(O)c(O)c1)C(=O)[O-].[K+].[K+]` (stereo not shown) [Dipotassium lithospermate B, dipotassium lithospermate B, reference compound], for which the Bleeding time in series [2] (50 mg/kg) is on record as 827 ± 70**^$$ second; in series [2] (100 mg/kg), 1301 ± 189**^$$ second.
With `O=C(/C=C/c1ccc(O)c2c1[C@H](C(=O)OC(Cc1ccc(O)c(O)c1)C(=O)[O-])C(c1ccc(O)c(O)c1)O2)O[C@H](Cc1ccc(O)c(O)c1)C(=O)[O-].[Mg+2]` (stereo partly shown) [Magnesium lithospermate B, magnesium lithospermate B], the “Toxic effect at high dosages, in words” value (in the series on endothelial cell HMEC-1; in series [1]) was “toxic effect” in each case. Further, the “Concentrations that significantly decreased the intracellular LDH content as compared with normal control wells” value in the series on endothelial cell HMEC-1 (human, 24 h) was 1200 and 1600 μM; in series [1] (rat, 24 h), 800, 1200, 1600 μM. The “Intracellular LDH content percent, HMEC-1 cell” value in the series on endothelial cell HMEC-1 (human, 24 h, 10 μM) stood at 99.70 ± 3.88%; with endothelial cell HMEC-1 (human, 24 h, 50 μM), 101.05 ± 4.77%; in the series on endothelial cell HMEC-1 (human, 24 h, 100 μM), 100.96 ± 4.01%; with endothelial cell HMEC-1 (human, 24 h, 200 μM), 98.58 ± 0.24%; in the series with endothelial cell HMEC-1 (human, 24 h, 400 μM), 97.8 ± 1.03%; in the series with endothelial cell HMEC-1 (human, 24 h, 800 μM), 96.93 ± 1.37%. Besides, the “Intracellular LDH content percent, HMEC-1 cell” value in the series on endothelial cell HMEC-1 (human, 24 h, 1200 μM) is reported as 96.17 ± 1.00 %; with endothelial cell HMEC-1 (human, 24 h, 1600 μM), 84.28 ± 3.28 %. Besides, the “Intracellular LDH content percent, H9C2 cell” value in series [1] (rat, 24 h, 10 μM) is on record as 101.42 ± 2.00%; in series [1] (rat, 24 h, 50 μM), 99.97 ± 1.43%; in series [1] (rat, 24 h, 100 μM), 101.25 ± 2.79%; in series [1] (rat, 24 h, 200 μM), 102.39 ± 1.37%; in series [1] (rat, 24 h, 400 μM), 102.75 ± 3.07%; in series [1] (rat, 24 h, 800 μM), 37.72 ± 7.52 %. Also, the “Intracellular LDH content percent, H9C2 cell” value was 21.59 ± 2.86 % in series [1] (rat, 24 h, 1200 μM) and 14.59 ± 3.05 % in series [1] (rat, 24 h, 1600 μM). Moreover, the Bleeding time in series [2] (50 mg/kg) is 1098 ± 84 s; in series [2] (100 mg/kg), 1800 ± 0 s. Moreover, the “Bleeding time / activity compared with the other test substances, in words” value in series [2] (same dosage, intravenous injection) was “remarkably longer than lithospermic acid B administration group; also recorded: significantly longer than dipotassium lithospermate B and depside salts of Salvia miltiorrhiza; also recorded: activity superior to the free acid (lithospermic acid B), other salts (dipotassium lithospermate B), and low purity mixtures (salvianolates of Salvia miltiorrhiza); also recorded: better activities than free acid (lithospermic acid B), other salt (dipotassium lithospermate B), and low purity mixture (depside salts of Salvia miltiorrhiza)”. Also, the “Inhibition rate” value is 84.41% in series [3] (n = 3) and “around 85%” in series [3] (n = 3, listed as magnesium lithospermate B). Further, the “0 h peak area” value in series [4] came out at 3611. Also, the “2 h peak area” value in series [4] turned out to be 3632. In addition, the “4 h peak area” value in series [4] was determined as 3614. Besides, in series [4], the “6 h peak area” value came out at 3636. Further, the “8 h peak area” value in series [4] amounted to 3629. In series [4], the “12 h peak area” value came to 3628. In addition, the “24 h peak area” value in series [4] is recorded as 3599. The same compound came in with an Average peak area in series [4] of 3621.3.

Values taken from patent US10259798B2, “High-purity magnesium lithospermate B and preparation method therefor” (priority 2014, dated 2019).
